SMILES strings stand for the structures. Calls of active or inactive are those of the source. No cut-off for these calls is given here.

In one experiment the test system is Influenza A virus. Briefly: Antiviral activity against Influenza A virus A/WSN/33(H1N1) infected in human 293T cells pretreated for 2 hrs followed by viral infection and measured after 24 hrs by Gaussia luciferase reporter gene assay. It is filed as functional, organism-based. As to conditions: A/WSN/1933(H1N1), HEK-293T.
In the case of `CCOC(=O)COc1nc(N2CCCC2)nc2ccccc12`, the concentration for half-maximal inhibition (IC50) amounted to 16.6 µM.
On the same count and under the same terms, then `O=C(O)COc1nc(N2CCCC2)nc2ccccc12`, with 60.1 µM.
As to `CCOc1ccccc1CNC(=O)COc1nc(N2CCCC2)nc2ccccc12`, the IC50 came out at 17.7 µM.
Same read-out and setting: then `CN(C)c1nc(OCC(=O)Nc2ccccc2)c2ccccc2n1`, with 3.7 µM.
The same measure, in the same setting: then `O=C(NCCOc1nc(N2CCc3ccccc3C2)nc2ccccc12)c1ccccc1`, with 4.19 µM.
The same measure, in the same setting: then `O=C(NCCOc1nc(Cl)nc2ccccc12)c1ccccc1`, with 48 µM.
As to `O=C(COc1nc(N2CCCC2)nc2ccccc12)Nc1nccs1`, the 50% inhibitory concentration (IC50) was found to be 39.4 µM.
Same read-out and setting: then `O=C(NCCOc1nc(N2CCCC2)nc2ccccc12)c1cccs1`, with 18.2 µM; and `O=C(COc1nc(Cl)nc2ccccc12)NCc1ccccc1`, with 26.5 µM.
On the same count and under the same terms, then `O=C(COc1nc(N2CCc3ccccc3C2)nc2ccccc12)NCc1ccccc1`, with 17.7 µM; and `NC(=O)c1ncn([C@@H]2O[C@H](CO)[C@@H](O)[C@H]2O)n1` [RIBAVIRIN], with 15.4 µM.
On the same count and under the same terms, then `O=C(NCCOc1nc(N2CCCC2)nc2ccccc12)c1ccc(C(F)(F)F)cc1`, with 8.64 µM; and `COc1ccc(OC(=O)NCCOc2nc(N3CCCC3)nc3ccccc23)cc1`, with 55.3 µM.

In the next experiment the test system is Influenza A virus. Briefly: Potency index, ratio of ribavirin IC50 to test compound IC50 for antiviral activity against Influenza A virus A/WSN/33(H1N1) infected in human 293T cells pretreated for 2 hrs followed by viral infection and measured after 24 hrs by Gaussia luciferase reporter gene assay. The experiment is classed as functional, A/WSN/1933(H1N1), HEK-293T.
Conditions: not given
As to `CN(C)c1nc(OCC(=O)Nc2ccccc2)c2ccccc2n1`, the “Ratio IC50” value came to 4.1.

Another experiment relates to Influenza A virus. Briefly: Antiviral activity against Influenza A virus A/WSN/33(H1N1) infected in human 293T cells assessed as inhibition of viral replication at 10 uM pretreated for 2 hrs followed by viral infection and measured after 24 hrs by Gaussia luciferase reporter gene assay. It is filed as functional, organism-based. Particulars: A/WSN/1933(H1N1), HEK-293T.
With `O=C(COc1nc(N2CCCC2)nc2ccccc12)NC1CC1`, the inhibition entry was “inactive”.
Still for that read-out and setting: then `CCOc1ccccc1CNC(=O)COc1nc(N2CCCC2)nc2ccccc12`, with “Active”.
On the same count and under the same terms, then `O=C(NCCOc1nc(N2CCc3ccccc3C2)nc2ccccc12)c1ccccc1`, with “Active”; and `CC(=O)c1ccc(C(=O)NCCOc2nc(N3CCCC3)nc3ccccc23)cc1`, with “inactive”.
On the same count and under the same terms, then `O=C(NCCOc1nc(N2CCCC2)nc2ccccc12)c1ccccc1`, with “Active”; and `O=C(NCCOc1nc(N2CCCC2)nc2ccccc12)C1CCCCC1`, with “inactive”.
Turning to `O=C(COc1nc(N2CCCC2)nc2ccccc12)Nc1ccc2ccccc2c1`, the inhibition entry was “inactive”.
On the same count and under the same terms, then `O=C(COc1nc(N2CCCC2)nc2ccccc12)Nc1nccs1`, with “Active”.
As to `O=C(COc1nc(N2CCCC2)nc2ccccc12)NC12CC3CC(CC(C3)C1)C2`, the inhibition result is “inactive”.
As for `NCCOc1nc(N2CCCC2)nc2ccccc12`, the inhibition result is “inactive”.
On the same count and under the same terms, then `O=C(NCCOc1nc(N2CCCC2)nc2ccccc12)C1CC1`, with “Active”.

Source of the values: ChEMBL document CHEMBL4619735, “Design, synthesis and anti-influenza A virus activity of novel 2,4-disubstituted quinazoline derivatives” (Bioorg Med Chem Lett, 2020).
